IC50 data for five compounds are collected here from US20240025907A1, “QUINAZOLINE PAN-KRas INHIBITORS” (Mirati Therapeutics, Inc., priority 2022, published 2024).

Experiment [1] relates to KRas-mediated Phosphorylation of ERK in H358 cells. In words: Cisbio HTRF pERK assay, H358 cells. Format: cell-based. As to conditions: H358 cells, 3 hrs compound, read-out: Inhibition (HTRF IC50 nM) of KRas-mediated Phosphorylation of ERK, H358. For orientation: TR-FRET usually uses a lanthanide donor and a delayed reading to cut background.
The test system of experiment [2] is KRas-mediated Phosphorylation of ERK in AsPC-1 cells. In words: Cisbio HTRF pERK assay, AsPC-1 cells. Type of experiment: cell-based. As to conditions: 3 hrs compound, read-out: Inhibition (HTRF IC50 nM) of KRas-mediated Phosphorylation of ERK, AsPC-1.
The test system of experiment [3] is KRas-mediated Phosphorylation of ERK in A549 cells. Description: Cisbio HTRF pERK assay, A549 cells. Format: cell-based. As to conditions: A549 cells, 3 hrs compound, read-out: Inhibition (HTRF IC50 nM) of KRas-mediated Phosphorylation of ERK, A549.
Experiment [4] deals with KRas-mediated Phosphorylation of ERK in H727 cells. Description: Cisbio HTRF pERK assay, H727 cells. Format: cell-based. As to conditions: 3 hrs compound, read-out: Inhibition (HTRF IC50 nM) of KRas-mediated Phosphorylation of ERK, H727.
Experiment [5] relates to KRas-mediated Phosphorylation of ERK in HCT116 cells. In words: Cisbio HTRF pERK assay, HCT116 cells. Format: cell-based. As to conditions: HCT116 cells, 3 hrs compound, read-out: Inhibition (HTRF IC50 nM) of KRas-mediated Phosphorylation of ERK, HCT116.
Experiment [6] concerns KRas-mediated Phosphorylation of ERK in H460 cells. In words: Cisbio HTRF pERK assay, H460 cells. As to conditions: H460 cells, 3 hrs compound, read-out: Inhibition (HTRF IC50 nM) of KRas-mediated Phosphorylation of ERK, H460. Format: cell-based.
Experiment [7] relates to KRas-mediated Phosphorylation of ERK in MKN1 cells. Description: Cisbio HTRF pERK assay, MKN1 cells. As to conditions: Homo sapiens, MKN-1, 3 hour compound, read-out: Inhibition (HTRF IC50 nM) of KRas-mediated Phosphorylation of ERK, MKN1. Type of experiment: cell-based. As to the method:
(§1) Inhibition of KRas Phosphorylation of ERK (HTRF) by Exemplary Compounds of Formula (I) • Cisbio HTRF Advanced pERK Assay Catalog #64AERPEH • Cell: MKN1, PSN1 • Procedure: • Day 1: Seed 6,000 cells/well −25 μl/well in 384-well white solid bottom plate; RPM1_10% FBS.

Experiment [8] concerns KRas-mediated Phosphorylation of ERK in H2009 cells. In words: Cisbio HTRF pERK assay, H2009 cells. Type of experiment: cell-based. As to conditions: read-out: Inhibition (HTRF IC50 nM) of KRas-mediated Phosphorylation of ERK, H2009.
Experiment [9] deals with KRas-mediated Phosphorylation of ERK in PSN1 cells. Description: Cisbio HTRF pERK assay, PSN1 cells. Format: cell-based. As to conditions: 3 hour compound, read-out: Inhibition (HTRF IC50 nM) of KRas-mediated Phosphorylation of ERK, PSN1. As to the method: as §1
A further experiment deals with T1, KRas^G12C (Homo sapiens, UniProt P01116, G12C).
T1 construct: Biotinylated KRas (corresponding to amino acids 1-169, produced at Accelegan Inc.); biotin (biotinylated); purchased Accelegan Inc
T1 sequence (P01116 1-169 isoform P01116-2 G12C): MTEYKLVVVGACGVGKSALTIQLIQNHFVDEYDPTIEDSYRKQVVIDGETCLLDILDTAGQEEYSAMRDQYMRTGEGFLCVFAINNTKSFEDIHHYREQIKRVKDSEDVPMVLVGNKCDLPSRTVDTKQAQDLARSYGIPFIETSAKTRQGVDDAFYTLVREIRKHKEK
Description: KRas TR-FRET tracer displacement binding assay, G12C. As to conditions: 60-minute incubation. The method, then: (§2) KRas^WT, KRas^G12A, KRas^G12C, KRas^G12D, KRas^G12R, KRas^G12S, KRas^G12V, KRas^G13D, or KRas^Q61H was used in the assay.
(§3) The ability of a compound to bind to KRas was measured using a TR-FRET displacement assay. Biotinylated KRas (corresponding to amino acids 1-169, produced at Accelegan Inc.) was incubated with custom made Cy5 labelled tracer, terbium streptavidin (Cisbio Inc.) and compound (1% DMSO final) in buffer (50 mM HEPES, pH 7.5, 5 mM MgCl2, 0.005% Tween-20 and 1 mM DTT). After a 60-minute incubation at room temperature, the reaction was measured using a BMG LABTECH CLARIO star Plus via TR-FRET.

The next experiment deals with T2, KRas^WT (Homo sapiens, UniProt P01116).
T2 construct: Biotinylated KRas (corresponding to amino acids 1-169, produced at Accelegan Inc.); biotin (biotinylated); purchased Accelegan Inc
T2 sequence (P01116 1-169 isoform P01116-2): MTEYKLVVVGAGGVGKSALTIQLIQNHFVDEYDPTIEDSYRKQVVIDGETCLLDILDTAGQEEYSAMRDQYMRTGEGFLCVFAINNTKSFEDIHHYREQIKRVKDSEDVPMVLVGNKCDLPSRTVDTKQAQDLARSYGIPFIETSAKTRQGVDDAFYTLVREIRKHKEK
Description: KRas TR-FRET tracer displacement binding assay, WT. As to conditions: 60-minute incubation. As to the method: as §2, §3

For another experiment, the target named is T3, KRas^G12V (Homo sapiens, UniProt P01116, G12V).
T3 construct: Biotinylated KRas (corresponding to amino acids 1-169, produced at Accelegan Inc.); biotin (biotinylated); purchased Accelegan Inc
T3 sequence (P01116 1-169 isoform P01116-2 G12V): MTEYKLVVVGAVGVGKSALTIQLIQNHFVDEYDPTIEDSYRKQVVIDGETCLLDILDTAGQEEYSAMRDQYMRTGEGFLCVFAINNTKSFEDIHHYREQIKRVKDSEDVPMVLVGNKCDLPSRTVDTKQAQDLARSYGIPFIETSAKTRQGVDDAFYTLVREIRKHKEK
Description: KRas TR-FRET tracer displacement binding assay, G12V. As to conditions: 60-minute incubation. As to the method: as §2, §3

The target of another experiment is T4, KRas^G12S (Homo sapiens, UniProt P01116, G12S).
T4 construct: Biotinylated KRas (corresponding to amino acids 1-169, produced at Accelegan Inc.); biotin (biotinylated); purchased Accelegan Inc
T4 sequence (P01116 1-169 isoform P01116-2 G12S): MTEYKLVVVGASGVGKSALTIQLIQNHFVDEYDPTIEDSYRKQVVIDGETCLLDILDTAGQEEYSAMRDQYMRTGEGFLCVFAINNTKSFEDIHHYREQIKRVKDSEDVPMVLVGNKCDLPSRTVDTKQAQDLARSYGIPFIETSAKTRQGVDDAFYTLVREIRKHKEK
In words: KRas TR-FRET tracer displacement binding assay, G12S. As to conditions: 60-minute incubation. The method, then: as §2, §3

The target of a further experiment is T5, KRas^G12D (Homo sapiens, UniProt P01116, G12D).
T5 construct: Biotinylated KRas (corresponding to amino acids 1-169, produced at Accelegan Inc.); biotin (biotinylated); purchased Accelegan Inc
T5 sequence (P01116 1-169 isoform P01116-2 G12D): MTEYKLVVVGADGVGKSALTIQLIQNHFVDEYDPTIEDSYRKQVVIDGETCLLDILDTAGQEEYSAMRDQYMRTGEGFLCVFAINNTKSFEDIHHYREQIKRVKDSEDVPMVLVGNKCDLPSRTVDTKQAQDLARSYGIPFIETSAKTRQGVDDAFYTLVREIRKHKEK
In words: KRas TR-FRET tracer displacement binding assay, G12D. As to conditions: 60-minute incubation. The method, then: as §2, §3

Setting [10] is: Homo sapiens, NCI-H2009, H2009 cells.

Molecules are shown by their SMILES. Like-named read-outs stand apart in the source and are kept apart here. Where only a bound is given, the exact number is not on record here.

As to `N#Cc1c(N)sc2c(F)ccc(-c3c(Cl)cc4c(N5CC6CCC(C5)N6)nc(OC[C@@]56CCCN5C/C(=C\F)C6)nc4c3F)c12` [Example 180, (R)-4-(4-((1R,5S)-3,8-diazabicyclo[3.2.1]octan-3-yl)-6-chloro-8-fluoro-2-(((S,Z)-2-(fluoromethylene)tetrahydro-1H-pyrrolizin-7a(5H)-yl)methoxy)quinazolin-7-yl)-2-amino-7-fluorobenzo[b]thiophene-3-carbonitrile], the IC50 is 54 nM in experiment [1]; 1 nM in experiment [2]; 139 nM in experiment [3]; 512 nM in experiment [4]; 72 nM in [5]; 81 nM in experiment [6]. Besides, the IC50 in experiment [7] stood at 10 nM; in [8] (setting [10]) it was 40 nM; in experiment [9] (Homo sapiens, PSN1, 3 h), 1370 nM.
As for `N#Cc1c(N)sc2c(F)ccc(-c3c(Cl)cc4c(N5CCC5CO)nc(OC[C@@]56CCCN5C[C@H](F)C6)nc4c3F)c12` (stereo partly drawn) [Example 209, 2-amino-4-(6-chloro-8-fluoro-2-(((2R,7aS)-2-fluorotetrahydro-1H-pyrrolizin-7a(5H)-yl)methoxy)-4-(2-(hydroxymethyl)azetidin-1-yl)quinazolin-7-yl)-7-fluorobenzo[b]thiophene-3-carbonitrile], the IC50 in experiment [1] (Homo sapiens, NCI-H358, 3 h) was found to be 9 nM; in [2] (Homo sapiens, ASPC1, 3 h), 93 nM; in experiment [3] (Homo sapiens, A549, 3 h) it was 68 nM; on KRas^G12C, 4 nM; in [4] (Homo sapiens, NCI-H727, 3 h) it was 27 nM; at KRas^WT, 2 nM. For the same compound, the IC50 in experiment [5] (Homo sapiens, HCT-116, 3 h) was 83 nM; in experiment [6] (Homo sapiens, NCI-H460, 3 h) it was 47 nM; on KRas^G12V, less than 2 nM; at KRas^G12S, 2 nM; on KRas^G12D, 7 nM; in experiment [8] (setting [10]), 15 nM. For the same compound, the IC50 in experiment [9] (Homo sapiens, PSN1, 3 h) was 1690 nM.
With `N#Cc1c(N)sc2c(F)ccc(-c3c(F)cc4c(NCc5cn[nH]c5)nc(OC[C@@]56CCCN5C[C@H](F)C6)nc4c3F)c12` [Example 214, 4-(4-(((1H-pyrazol-4-yl)methyl)amino)-6,8-difluoro-2-(((2R,7aS)-2-fluorotetrahydro-1H-pyrrolizin-7a(5H)-yl)methoxy)quinazolin-7-yl)-2-amino-7-fluorobenzo[b]thiophene-3-carbonitrile], the IC50 in experiment [1] (Homo sapiens, NCI-H358, 3 h) was 982 nM; in experiment [2] (Homo sapiens, ASPC1, 3 h), greater than 10000 nM; in [3] (Homo sapiens, A549, 3 h), greater than 10000 nM; in experiment [4] (Homo sapiens, NCI-H727, 3 h) it was greater than 10000 nM; in experiment [5] (Homo sapiens, HCT-116, 3 h) it was greater than 10000 nM; in experiment [6] (Homo sapiens, NCI-H460, 3 h), 5060 nM. In addition, the IC50 in experiment [7] was 739 nM; in experiment [8] (setting [10]), 4690 nM; in [9] (Homo sapiens, PSN1, 3 h) it was greater than 10000 nM.
Take `Cc1c(F)c(N)nc(-c2c(Cl)cc3c(NC(C)c4cccnc4N)nc(OC[C@@]45CCCN4C[C@H](F)C5)nc3c2F)c1C(F)(F)F` (single isomer, unassigned; isomer 2) [Example 173]: the IC50 in experiment [1] worked out at 95 nM; in experiment [2] it was 1890 nM; in experiment [3], 244 nM; at KRas^G12C it was 454 nM; in experiment [4], 252 nM; at KRas^WT it was 751 nM. For the same compound, the IC50 in [5] is 2900 nM; in experiment [6] it was 511 nM; on KRas^G12V it was 430 nM; on KRas^G12S, 331 nM; on KRas^G12D, 661 nM; in [8] (H2009 cells), 40 nM. Also, in experiment [9], the IC50 was greater than 10000 nM.
On to `Cc1c(F)c(N)nc(-c2c(Cl)cc3c(NC(C)c4cccnc4N)nc(OC[C@@]45CCCN4C[C@H](F)C5)nc3c2F)c1C(F)(F)F` (single isomer, unassigned; isomer 1) [Example 172], for which the IC50 was 15 nM in [1]; 794 nM in experiment [2]; 111 nM in experiment [3]; less than 2 nM at KRas^G12C; 111 nM in experiment [4]; 11 nM at KRas^WT. Besides, the IC50 in [5] is 841 nM; in experiment [6] it was 182 nM; on KRas^G12V it was 3 nM; at KRas^G12S it was 3 nM; on KRas^G12D, 34 nM; in [8] (H2009 cells), 8 nM. For the same compound, in experiment [9], the IC50 came to 4290 nM.

In general, IC50 refers to the concentration needed to halve the response being measured.
